From the CheMixHub drug solubility set

Test: xn = mol fraction of the nth substance listed, in the solute-free solvent

COC(=O)Nc1nc2ccccc2[nH]1 + CCCO + O
solubility (g/100 g solution)
Conditions	278.15 K	283.15 K	288.15 K	293.15 K	298.15 K	303.15 K	308.15 K	313.15 K	318.15 K
x2 = 0.03228	0.000759	0.000937	0.00117	0.00145	0.00179	0.00212	0.00255	0.00307	0.00365
x2 = 0.06986	0.00122	0.00153	0.00195	0.00246	0.00308	0.00372	0.00456	0.00552	0.00671
x2 = 0.1138	0.00157	0.00198	0.00262	0.00333	0.00428	0.00526	0.0066	0.00814	0.01
x2 = 0.1665	0.0017	0.00223	0.00302	0.00394	0.00516	0.00653	0.00832	0.0105	0.0132
x2 = 0.2308	0.0017	0.00229	0.00318	0.00426	0.0057	0.00739	0.00966	0.0124	0.016
x2 = 0.3105	0.00161	0.00218	0.0032	0.00441	0.00599	0.00796	0.0107	0.0141	0.0185
x2 = 0.4108	0.00149	0.0021	0.00313	0.00441	0.00614	0.00837	0.0115	0.0155	0.0208
x2 = 0.5455	0.00136	0.00196	0.00302	0.00436	0.00622	0.0087	0.0123	0.0169	0.0232
x2 = 0.7314	0.00123	0.00179	0.00287	0.00425	0.00617	0.00889	0.0128	0.0181	0.0254

O=C1C=CC(=O)N1c1ccccc1Br + CO + O
solubility (g/100 g solution)
Conditions	278.15 K	283.15 K	288.15 K	293.15 K	298.15 K	303.15 K	308.15 K	313.15 K	318.15 K	323.15 K
x2 = 0.05881	0.58	0.746	0.94	1.19	1.47	1.83	2.25	2.74	3.31	4.02
x2 = 0.1233	1.14	1.45	1.86	2.38	2.94	3.7	4.49	5.5	6.69	7.95
x2 = 0.1942	2.04	2.61	3.29	4.1	5.06	6.13	7.47	9.02	10.8	12.7
x2 = 0.2727	3.47	4.29	5.27	6.48	7.79	9.34	11.1	13	15.3	17.7
x2 = 0.3599	4.79	5.85	7.12	8.56	10.2	12	14.3	16.5	19	21.8
x2 = 0.4576	6.01	7.29	8.71	10.5	12.4	14.5	16.9	19.4	22.2	25.4
x2 = 0.5675	7	8.5	10.2	12.2	14.3	16.8	19.5	22.2	25.4	28.6
x2 = 0.6923	7.84	9.53	11.5	13.5	16.1	18.7	21.7	24.7	28.1	31.6
x2 = 0.835	8.75	10.5	12.7	14.9	17.7	20.6	23.8	27.1	30.8	34.6

Nc1ncn(C2OC(CO)C(O)C2O)c(=O)n1 (stereo unspecified) + O + CCCO
solubility (g/100 g solution)
Conditions	278.15 K	283.15 K	288.15 K	293.15 K	298.15 K	303.15 K	308.15 K	313.15 K	318.15 K
x2 = 0.4546	0.0722	0.0869	0.104	0.124	0.149	0.177	0.208	0.241	0.279
x2 = 0.6897	0.165	0.201	0.249	0.302	0.359	0.424	0.49	0.562	0.635
x2 = 0.8334	0.298	0.368	0.448	0.54	0.637	0.744	0.852	0.965	1.07
x2 = 0.9303	0.488	0.59	0.72	0.861	1.01	1.17	1.33	1.49	1.66

Nc1cccc2c1CN(C1CCC(=O)NC1=O)C2=O (stereo unspecified) + CC#N + CO
solubility (g/100 g solution)
Conditions	273.15 K	278.15 K	283.15 K	288.15 K	293.15 K	298.15 K	303.15 K	308.15 K	313.15 K	318.15 K
x2 = 0.1633	0.557	0.585	0.618	0.646	0.686	0.727	0.771	0.821	0.871	0.922
x2 = 0.3423	0.674	0.696	0.729	0.767	0.805	0.849	0.89	0.935	0.98	1.03
x2 = 0.5394	0.771	0.811	0.855	0.901	0.948	0.997	1.05	1.1	1.16	1.22
x2 = 0.7574	0.653	0.682	0.713	0.752	0.794	0.84	0.89	0.942	0.996	1.05

CC(C)C(=O)Nc1ccc([N+](=O)[O-])c(C(F)(F)F)c1 + C1COCCO1 + O
solubility (g/100 g solution)
Conditions	283.15 K	288.15 K	293.15 K	298.15 K	303.15 K	308.15 K	313.15 K	318.15 K	323.15 K
x2 = 0.02222	0.00748	0.00971	0.0126	0.0163	0.0208	0.0262	0.033	0.0406	0.0498
x2 = 0.04865	0.0654	0.0845	0.108	0.135	0.17	0.212	0.26	0.316	0.382
x2 = 0.0806	0.391	0.472	0.574	0.691	0.832	0.993	1.17	1.38	1.63
x2 = 0.12	1.34	1.61	1.89	2.2	2.56	2.98	3.46	3.97	4.55
x2 = 0.1698	3.72	4.33	5.02	5.81	6.62	7.58	8.62	9.74	11
x2 = 0.2348	7.42	8.68	9.98	11.4	13	14.8	16.6	18.7	20.9
x2 = 0.3231	12.2	14.1	16.3	18.5	20.8	23.4	26.1	28.9	31.9
x2 = 0.45	18.1	20.6	23.5	26.6	29.8	33.3	36.7	40.4	44.1
x2 = 0.648	24.9	28	31.2	34.6	38.2	41.8	45.6	49.4	53.2

CC1=NNC(=O)N(N=Cc2cccnc2)C1 + C1COCCO1 + CC(C)O
solubility (g/100 g solution)
Conditions	288.15 K	293.15 K	298.15 K	303.15 K	308.15 K	313.15 K	318.15 K
x2 = 0.1457	0.106	0.125	0.147	0.169	0.197	0.227	0.261
x2 = 0.3126	0.11	0.127	0.149	0.173	0.2	0.229	0.263
x2 = 0.5057	0.113	0.132	0.154	0.176	0.202	0.233	0.268
x2 = 0.7318	0.116	0.135	0.156	0.179	0.206	0.235	0.27
